Reference: US10894036B2, “Use of marizomib for the treatment of central nervous system (CNS) cancers” (Celgene International II Sàrl, priority 2016, dated 2021)

Assay: Phase 1/2 MRZ + BEV and MRZ monotherapy in recurrent G4 MG: adverse events, DLT
[1] = MRZ+BEV, 36 pts, as of 12 Sep. 2016

Method: The clinical trial was a Phase 1, dose-escalation (3+3 design) followed by dose-expansion at recommended Phase 2 Dose (RP2D).
The drugs were infused on 28-Day Cycles. Tumor response is assessed every other cycle by RANO criteria.
The safety data will be presented in individual listings and summary tables, including frequency tables for adverse events and frequency and shift tables for laboratory variables. The safety population will be all subjects who received at least one dose of either study drug in Phase 1 or MRZ in Phase 2.

With `C[C@@]12OC(=O)[C@]1([C@@H](O)[C@@H]1C=CCCC1)NC(=O)[C@@H]2CCCl` [marizomib] the “confusional state, marizomib-related adverse events ≥3, patients” value (MRZ + BEV, N = 36) was 3, the “headache, marizomib-related adverse events ≥3, patients” value (MRZ + BEV, N = 36) was 3 and the “patients with marizomib-related serious adverse events” value (MRZ + BEV, N = 36) was “Four”. For the same compound, the “Anaemia: # pts, related to MRZ” value (MRZ+BEV, 12 Sep. 2016) was 6, the “Anxiety: # pts, related to MRZ” value (MRZ+BEV, 12 Sep. 2016) was 0 and the “Aphasia: # pts, related to MRZ” value (MRZ+BEV, 12 Sep. 2016) was 0. For the same compound, the “Appendicitis Perforated: # pts, related to MRZ” value (MRZ+BEV, 12 Sep. 2016) was 0, the “Asthenia: # pts, related to MRZ” value (MRZ+BEV, 12 Sep. 2016) was 0 and the “Ataxia: # pts, related to MRZ” value (MRZ+BEV, 12 Sep. 2016) was 6. For the same compound, the “Confusional State: # pts, related to MRZ” value (MRZ+BEV, 12 Sep. 2016) was 6, the “Constipation: # pts, related to MRZ” value (MRZ+BEV, 12 Sep. 2016) was 4 and the “Convulsion: # pts, related to MRZ” value (MRZ+BEV, 12 Sep. 2016) was 0. For the same compound, the “Delusion: # pts, related to MRZ” value (MRZ+BEV, 12 Sep. 2016) was 1, the “Depressed Level of Consciousness: # pts, related to MRZ” value (MRZ+BEV, 12 Sep. 2016) was 0 and the “Diarrhoea: # pts, related to MRZ” value (MRZ+BEV, 12 Sep. 2016) was 9. The “Dizziness: # pts, related to MRZ” value (MRZ+BEV, 12 Sep. 2016) was 8, the “Dysarthria: # pts, related to MRZ” value (MRZ+BEV, 12 Sep. 2016) was 1 and the “Dysphagia: # pts, related to MRZ” value (MRZ+BEV, 12 Sep. 2016) was 0. The “Dysphonia: # pts, related to MRZ” value (MRZ+BEV, 12 Sep. 2016) was 0, the “Dyspnoea: # pts, related to MRZ” value (MRZ+BEV, 12 Sep. 2016) was 0 and the “Ear Infection: # pts, related to MRZ” value (MRZ+BEV, 12 Sep. 2016) was 0. For the same compound, the “Embolism: # pts, related to MRZ” value (MRZ+BEV, 12 Sep. 2016) was 0, the “Epistaxis: # pts, related to MRZ” value (MRZ+BEV, 12 Sep. 2016) was 0 and the “Falls: # pts, related to MRZ” value (MRZ+BEV, 12 Sep. 2016) was 3. The “Fatigue: # pts, related to MRZ” value (MRZ+BEV, 12 Sep. 2016) was 1, the “Fracture of Femur: # pts, related to MRZ” value (MRZ+BEV, 12 Sep. 2016) was 0 and the “Haemorrhage Intracranial: # pts, related to MRZ” value (MRZ+BEV, 12 Sep. 2016) was 0. The “Hallucination: # pts, related to MRZ” value (MRZ+BEV, 12 Sep. 2016) was 11, the “Headache: # pts, related to MRZ” value (MRZ+BEV, 12 Sep. 2016) was 5 and the “Hemiparesis: # pts, related to MRZ” value (MRZ+BEV, 12 Sep. 2016) was 0. For the same compound, the “Hyperglycemia: # pts, related to MRZ” value (MRZ+BEV, 12 Sep. 2016) was 0, the “Hypertension: # pts, related to MRZ” value (MRZ+BEV, 12 Sep. 2016) was 0 and the “Hypokalemia: # pts, related to MRZ” value (MRZ+BEV, 12 Sep. 2016) was 0. For the same compound, the “Hyponatremia: # pts, related to MRZ” value (MRZ+BEV, 12 Sep. 2016) was 1, the “Hypotension: # pts, related to MRZ” value (MRZ+BEV, 12 Sep. 2016) was 0 and the “Infusion Site Pain: # pts, related to MRZ” value (MRZ+BEV, 12 Sep. 2016) was 6. For the same compound, the “Insomnia: # pts, related to MRZ” value (MRZ+BEV, 12 Sep. 2016) was 1, the “Lymphocyte Count Decreased: # pts, related to MRZ” value (MRZ+BEV, 12 Sep. 2016) was 0 and the “Muscular Weakness: # pts, related to MRZ” value (MRZ+BEV, 12 Sep. 2016) was 2. For the same compound, the “Nausea: # pts, related to MRZ” value (MRZ+BEV, 12 Sep. 2016) was 19, the “Optic Nerve Disorder: # pts, related to MRZ” value (MRZ+BEV, 12 Sep. 2016) was 0 and the “Pyramidal Tract Syndrome: # pts, related to MRZ” value (MRZ+BEV, 12 Sep. 2016) was 0. For the same compound, the “Tumor Metastasis: # pts, related to MRZ” value (MRZ+BEV, 12 Sep. 2016) was 0, the “Vision Blurred: # pts, related to MRZ” value (MRZ+BEV, 12 Sep. 2016) was 3 and the “Vomiting: # pts, related to MRZ” value (MRZ+BEV, 12 Sep. 2016) was 12. For the same compound, the “Anaemia: # events related to MRZ” value (MRZ+BEV, 17 May 2016) was 9, the “Aphasia: # events related to MRZ” value (MRZ+BEV, 17 May 2016) was 0 and the “Appendicitis Perforated: # events related to MRZ” value (MRZ+BEV, 17 May 2016) was 0. For the same compound, the “Asthenia: # events related to MRZ” value (MRZ+BEV, 17 May 2016) was 0, the “Ataxia: # events related to MRZ” value (MRZ+BEV, 17 May 2016) was 10 and the “Confusional State: # events related to MRZ” value (MRZ+BEV, 17 May 2016) was 8. The “Constipation: # events related to MRZ” value (MRZ+BEV, 17 May 2016) was 5, the “Convulsion: # events related to MRZ” value (MRZ+BEV, 17 May 2016) was 0 and the “Delusion: # events related to MRZ” value (MRZ+BEV, 17 May 2016) was 1. For the same compound, the “Diarrhoea: # events related to MRZ” value (MRZ+BEV, 17 May 2016) was 12, the “Dizziness: # events related to MRZ” value (MRZ+BEV, 17 May 2016) was 13 and the “Dysarthria: # events related to MRZ” value (MRZ+BEV, 17 May 2016) was 1. The “Dysphagia: # events related to MRZ” value (MRZ+BEV, 17 May 2016) was 0, the “Dysphonia: # events related to MRZ” value (MRZ+BEV, 17 May 2016) was 0 and the “Dyspnoea: # events related to MRZ” value (MRZ+BEV, 17 May 2016) was 0. The “Ear Infection: # events related to MRZ” value (MRZ+BEV, 17 May 2016) was 0, the “Embolism: # events related to MRZ” value (MRZ+BEV, 17 May 2016) was 0 and the “Epistaxis: # events related to MRZ” value (MRZ+BEV, 17 May 2016) was 0. The “Fatigue: # events related to MRZ” value (MRZ+BEV, 17 May 2016) was 1, the “Haemorrhage Intracranial: # events related to MRZ” value (MRZ+BEV, 17 May 2016) was 0 and the “Hallucination: # events related to MRZ” value (MRZ+BEV, 17 May 2016) was 16. For the same compound, the “Headache: # events related to MRZ” value (MRZ+BEV, 17 May 2016) was 6, the “Hemiparesis: # events related to MRZ” value (MRZ+BEV, 17 May 2016) was 0 and the “Hyperglycemia: # events related to MRZ” value (MRZ+BEV, 17 May 2016) was 0. The “Hypertension: # events related to MRZ” value (MRZ+BEV, 17 May 2016) was 0, the “Hypokalemia: # events related to MRZ” value (MRZ+BEV, 17 May 2016) was 1 and the “Hypotension: # events related to MRZ” value (MRZ+BEV, 17 May 2016) was 0. The “Insomnia: # events related to MRZ” value (MRZ+BEV, 17 May 2016) was 1, the “Lymphocyte Count Decreased: # events related to MRZ” value (MRZ+BEV, 17 May 2016) was 0 and the “Muscular Weakness: # events related to MRZ” value (MRZ+BEV, 17 May 2016) was 3. The “Nausea: # events related to MRZ” value (MRZ+BEV, 17 May 2016) was 36, the “Pyramidal Tract Syndrome: # events related to MRZ” value (MRZ+BEV, 17 May 2016) was 0 and the “Vomiting: # events related to MRZ” value (MRZ+BEV, 17 May 2016) was 16. The “Anaemia: # patients, AE related to labelled agent (BEV, MRZ, Both)” value [1] was 6, the “Anxiety: # patients, AE related to labelled agent (BEV, MRZ, Both)” value [1] was 0 and the “Aphasia: # patients, AE related to labelled agent (BEV, MRZ, Both)” value [1] was 0. For the same compound, the “Appendicitis Perforated: # patients, AE related to labelled agent (BEV, MRZ, Both)” value [1] was 0, the “Asthenia: # patients, AE related to labelled agent (BEV, MRZ, Both)” value [1] was 0 and the “Ataxia: # patients, AE related to labelled agent (BEV, MRZ, Both)” value [1] was 6. For the same compound, the “Confusional State: # patients, AE related to labelled agent (BEV, MRZ, Both)” value [1] was 6, the “Constipation: # patients, AE related to labelled agent (BEV, MRZ, Both)” value [1] was 4 and the “Convulsion: # patients, AE related to labelled agent (BEV, MRZ, Both)” value [1] was 0. The “Delusion: # patients, AE related to labelled agent (BEV, MRZ, Both)” value [1] was 1, the “Depressed Level of Consciousness: # patients, AE related to labelled agent (BEV, MRZ, Both)” value [1] was 0 and the “Diarrhoea: # patients, AE related to labelled agent (BEV, MRZ, Both)” value [1] was 9. For the same compound, the “Dizziness: # patients, AE related to labelled agent (BEV, MRZ, Both)” value [1] was 8, the “Dysarthria: # patients, AE related to labelled agent (BEV, MRZ, Both)” value [1] was 1 and the “Dysphagia: # patients, AE related to labelled agent (BEV, MRZ, Both)” value [1] was 0. For the same compound, the “Dysphonia: # patients, AE related to labelled agent (BEV, MRZ, Both)” value [1] was 0, the “Dyspnoea: # patients, AE related to labelled agent (BEV, MRZ, Both)” value [1] was 0 and the “Ear Infection: # patients, AE related to labelled agent (BEV, MRZ, Both)” value [1] was 0. For the same compound, the “Embolism: # patients, AE related to labelled agent (BEV, MRZ, Both)” value [1] was 0, the “Epistaxis: # patients, AE related to labelled agent (BEV, MRZ, Both)” value [1] was 0 and the “Falls: # patients, AE related to labelled agent (BEV, MRZ, Both)” value [1] was 3. The “Fatigue: # patients, AE related to labelled agent (BEV, MRZ, Both)” value [1] was 1, the “Fracture of Femur: # patients, AE related to labelled agent (BEV, MRZ, Both)” value [1] was 0 and the “Haemorrhage Intracranial: # patients, AE related to labelled agent (BEV, MRZ, Both)” value [1] was 0. The “Hallucination: # patients, AE related to labelled agent (BEV, MRZ, Both)” value [1] was 11, the “Headache: # patients, AE related to labelled agent (BEV, MRZ, Both)” value [1] was 5 and the “Hemiparesis: # patients, AE related to labelled agent (BEV, MRZ, Both)” value [1] was 0. The “Hyperglycemia: # patients, AE related to labelled agent (BEV, MRZ, Both)” value [1] was 0, the “Hypertension: # patients, AE related to labelled agent (BEV, MRZ, Both)” value [1] was 0 and the “Hypokalemia: # patients, AE related to labelled agent (BEV, MRZ, Both)” value [1] was 0. For the same compound, the “Hyponatremia: # patients, AE related to labelled agent (BEV, MRZ, Both)” value [1] was 1, the “Hypotension: # patients, AE related to labelled agent (BEV, MRZ, Both)” value [1] was 0 and the “Infusion Site Pain: # patients, AE related to labelled agent (BEV, MRZ, Both)” value [1] was 6. The “Insomnia: # patients, AE related to labelled agent (BEV, MRZ, Both)” value [1] was 1, the “Lymphocyte Count Decreased: # patients, AE related to labelled agent (BEV, MRZ, Both)” value [1] was 0 and the “Muscular Weakness: # patients, AE related to labelled agent (BEV, MRZ, Both)” value [1] was 2. The “Nausea: # patients, AE related to labelled agent (BEV, MRZ, Both)” value [1] was 19, the “Optic Nerve Disorder: # patients, AE related to labelled agent (BEV, MRZ, Both)” value [1] was 0 and the “Pyramidal Tract Syndrome: # patients, AE related to labelled agent (BEV, MRZ, Both)” value [1] was 0. For the same compound, the “Tumor Metastasis: # patients, AE related to labelled agent (BEV, MRZ, Both)” value [1] was 0, the “Vision Blurred: # patients, AE related to labelled agent (BEV, MRZ, Both)” value [1] was 3 and the “Vomiting: # patients, AE related to labelled agent (BEV, MRZ, Both)” value [1] was 12. The tolerability (in combination with BEV and as monotherapy) was “generally well tolerated”.
